# In publication PMC3649849 (Journal of the American Chemical Society, 2013):
# Tests used:
# [1] = target: L232A mutant TbbTIM (Trypanosoma brucei brucei, UniProt P04789, L232A); assay: Competitive inhibition of TIM-catalyzed isomerization of GAP by phosphoglycolate; format: biochemical
# [2] = target: wildtype TbbTIM (triosephosphate isomerase) (Trypanosoma brucei brucei, UniProt P04789); assay: as above; format: biochemical; conditions: relative to 14 kcal/mol estimated for GAP
# [3] = tested on: I172A mutant TbbTIM; assay: as above; format: biochemical, Trypanosoma brucei brucei; conditions: pH < 6
# [4] = I = 0.05 (KCl); cited from earlier work
smiles,measurement,setting,value
"O=C(O)COP(=O)(O)O [PGA, Phosphoglycolate]",fold increase in the affinity of the enzyme for I^3− from the L232A mutation,"[1]; pH 8.3, relative to wildtype",20 fold
same,Ki,"[1]; read-out: Ki for inhibition by PGA trianion I^3−, pH 8.3, 25 °C, I = 0.1 (NaCl)",12 µM
same,fraction of the total intrinsic transition state binding energy for TIM expressed,[2],~ 80%
same,fold lower affinity of the mutant compared with the wildtype enzyme for I^3−,[3],100 fold
same,pKa for ionization of HI^2− to form I^3−,[4],6.5
